Experimental data: US7206699B2, “Methods for measuring therapy resistance” (Virco N.V., priority 2000, dated 2007)
Read-outs that look alike come from different tables or passages of the source.

Tested on: HIV-1
Settings: for Geometric Mean Phenotype: fold change in IC50 vs wild type; for Average Phenotype (log): log fold change
[1] = RT codon 41 ANY, 184 ANY, 215 ANY, N 13255
[2] = RT codon 41 L, 184 WT, 215 WT, N 54
[3] = RT codon 41 WT, 184 V/I, 215 F/Y, N 673
[4] = RT codon 41 WT, 184 V/I, 215 WT, N 2172
[5] = RT codon 41 WT, 184 WT, 215 WT, N 4826

Description: The whole process can be divided into three phases: molecular biology, transfection and susceptibility testing.
• Viral RNA fragments extracted from patient's blood sample • Complementary DNA (cDNA) of the gag-PR-RT sequence, through to codon 400 formed via reverse transcription • Gag-PT-RT sequence multiplied using two rounds of PCR • Purification of the DNA fragments • Creation of laboratory proviral clone with gag-PR-RT sequence deleted • Insertion of the clone into bacterial plasmids for reproduction of large quantities. Transfection This is the process by which viral genes are transferred to a cell. • 1. The gag-PR-RT sequences from the patient sample and the plasmid fragments are mixed with CD4+, MT4 cells. • 2. Electroporation takes place: the cells are subject to a short (milliseconds), but strong current in a cuvette producing transient openings in the cell membrane, through which both the gag-PR-RT DNA fragment and the plasmid fragment enter. • 3. In a relatively small proportion of the cells, both fragments will meet up and, probably supported by a cellular enzyme, recombine to form a complete HIV-1 genome that can now be converted into infectious virus particles. • 4. The recombinant virus is then grown in this cell culture for approximately 8 days, until the cytopathogenic effect or CPE reaches a sufficient level. • 5. The medium is then centrifuged to separate out the cells and the supernatant contains large quantities of recombinant virus—the virus stock harvest. • 6. The virus is then titrated to achieve a known concentration. Susceptibility Testing
Different concentrations of the antiviral agents are placed in the 384 microwells of a microtiter test plate. Several wells are used for each concentration and the mean results used to increase reliability. • 2. A set dilution of the recombinant virus stock or wild type control virus is added to each microwell. • 3. A set dilution of MT4 cells containing a fluorescent reporter gene system is also added to each microwell. • 4. The plate is incubated for 3 days during which time the recombinant virus will replicate in the MT4 cells unless inhibited by the antiviral drug. Replication triggers the reporter gene, which produces proteins which fluoresce. • 5. The amount of viral replication at each concentration of drug is measured by computerized spectrophotometry, relative to the wild type virus controls. • 6. The susceptibility of the virus to each drug is expressed as a fold change in IC50 relative to wild type virus. • 7.
Plasma samples were obtained from patients and submitted to laboratories for routine assessment of drug susceptibility.

## Cc1cn([C@H]2C[C@H](N=[N+]=[N-])[C@@H](CO)O2)c(=O)[nH]c1=O [AZT, zidovudine]
[1]
  Geometric Mean Phenotype: 3.9 fold
  Average Phenotype (log): 0.59
[2]
  Geometric Mean Phenotype: 1.7 fold
  Average Phenotype (log): 0.24
[3]
  Geometric Mean Phenotype: 6.2 fold
  Average Phenotype (log): 0.79
[4]
  Geometric Mean Phenotype: 1.3 fold
  Average Phenotype (log): 0.10
[5]
  Geometric Mean Phenotype: 1.3 fold
  Average Phenotype (log): 0.12
Genetic clusters with multiple mutations conferring AZT resistance, FIG. 8
  mean fold resistance, increase: ~100 fold
Genetic clusters with vs without 184V/I, FIG. 8
  effect of including the 184V mutation together with AZT resistance mutations: substantial reduction in the predicted magnitude of AZT resistance
Virus harbouring the 184V mutation, FIG. 8
  mean fold resistance of genetic cluster, in words: slightly reduced level of susceptibility
